Key:
[1] = Molar extinction coefficient determination; type: physicochemical
Method: The concentration determination and measurement of full UV-Vis spectra were performed on a Tecan 20M at room temperature. The measurements were performed in a 1400 µL quarz cuvette with a pathlength of 1 cm in a volume of 1 mL.
For the accurate determination of our compounds 6-TramTO-3 the extinction coefficient was calculated. A specific amount (< 2.00 mg) of the compound was weighted on a Mettler Toledo XP6 and dissolved in a known amount of milli-Q water. Increasing amounts of such stock solution were added into a 1 mL cuvette filled with 1 ml of milli-Q water. The corresponding absorbance of each addition was measured on a Tecan Spark 20M at the maximum at 625 nm and without exceeding 10% of the initial volume. In all the cases the absorbance was between 0.1 and 1 AU. to be in concordance with Lambert-Beer law (equation E2). A = ε l c [formula]
In this equation (E2): A = absorbance of the solution; I = length of the cuvette; c = concentration; ε = molar extinction coefficient.
The lineal regression of the obtained absorbance measurements versus the concentrations of 6-TramTO-3 allowed us to obtain the molar extinction coefficient. These measurements were repeated three times independently i.e. from three different stock solutions. The mean extinction coefficient and the standard deviation of 6-TramTO-3 at a wavelength of 625 nm in milli-Q water was 59403 ±646 M^-1cm^-1.
The mean extinction coefficient and the standard deviation of 6-NH2TO-3 and 6-AzTO-3 were determined following the above described procedure. The extinction coefficient of 6-NH2TO-3 was determined in milli-Q water, whereas the extinction coefficient of 6-AzTO-3 was determined in DMSO due to its low aqueous solubility. […] For the spectrum of 6-AzTO-3 1% of DMSO was added for a better solubility. Fig. 20 and Fig. 21 show the linear regressions from the three independent measurements. Table 4 summarized the molar extinction coefficient obtained. Table 4: Determined mean extinction coefficients and standard deviations of 6-AzTO-3 in DMSO and 6-TramTO-3 and 6-NH2TO-3 in milli-Q water.

[2] = Aqueous solubility (remark); type: physicochemical; settings: reason why the extinction coefficient was determined in DMSO
[3] = Fluorescence quantum yield, dye alone; type: physicochemical; settings: reference compounds determined against each other; Atto 655 in PBS pH 7.4, Alexa Fluor 647 in 50 mM potassium phosphate pH 7.2 and 150 mM NaCl
Method: Fluorescence intensity values for the quantum yields were determined on an ISS PC1 spectrofluorometer with an ISS 11650 lamp connected to an ISS Simpson model 109 and an ISS 80011 photomulitplier connected to a MGW Lauda K2R D and an Amherst Scientific Corp. 7600F for cooling. A VWR Refrigerated Circ 1160S was connected for the cooling of the cuvette chamber. It was measured in a 1400 µL fluorescence cuvette of HellmaAnalytics (104F-QS) at 25°C using the following settings: increment: 2.0 nm; integration time: 1.0 s; excitation slit width: 0.25 mm; emission slit width: 0.5 mm; excitation wavelength 590 nm. The emission spectra were recorded from 610 to 750 nm. From all spectra the corresponding background signal was substracted. Absorbance values were measured on a Jasco V-650 UV-Vis Spectrophotometer equipped with a Jasco PAC-743 temperature controlled cell holder and a Julabo F250 cooling system. UV-Vis titration measurements were performed in a 1400 µL quarz cuvette with a pathlength of 1 cm at 25°C using the following settings: increment: 1.0 nm; bandwidth: 1.0 nm; scanning speed: 1000 nm/min; scanning mode: continuous. From all values, the corresponding background signal was subtracted. The values for the reference compounds were measured in duplicates, the ones for 6-TramTO-3 with and without dsDNACT in triplicates. The quantum yields of 6-TramTO-3 with (30 eq.) and without dsDNACT were determined in 10 mM Tris pH 7.6 and 50 mM KCI. All measurement were following the procedure of Horiba and using the equation E1: ΦX = ΦST ((GradX)/(GradST)) ((((ηX))^2)/(((ηST))^2)) [formula] where Φ = fluorescence quantum yield, η = refractive index of the used solvent, Grad = gradient from the plot of integrated fluorescence intensity vs. absorbance and the subscripts ST and X denote standard and tested sample. […]
Table 3: Determined slopes and corresponding quantum yields for the two reference compounds Alexa Flour® 647 and Atto 655 and for 6-TramTO-3 with and without dsDNACT.

[4] = Atto 655 in PBS pH 7.4; Alexa Fluor 647 in 50 mM potassium phosphate pH 7.2 and 150 mM NaCl; cited from earlier work
dsDNACT = settings: previously obtained results for DNA intercalators with the same DNA (dsDNACT); cited from earlier work
E. coli = assay: Resistance to standard antibiotics, bacterial dilutions spotted onto solid medium; type: cell-based, Escherichia coli; settings: dilutions spotted onto LB solid medium supplemented with antibiotic, outgrowth 48 h
Method: (§1) Escherichia coli (E. coli) NEB5α (New England Biolabs) and antibiotic-resistant and -sensitive Klebsiella pneumoniae (K. pneumoniae) were cultured in Luria-Bertani (LB) solid medium (LB-Agar) overnight at 37°C. The source of the K. pneumoniae strands is of no relevance to the invention. The invention may be applied to all types of microorganisms (bacteria, viri, fungi etc.) or other cells, either contained within a sample or isolated from a sample. For staining, growth curve analysis and replating experiments bacteria were suspended in LB liquid medium at an OD600 nm of 1.0 and 800 µL were transferred into a culture tube containing 7.2 mL of LB liquid medium supplemented with DMSO or candidate dyes (2.5 µM) final concentration). Density of bacterial cultures was measured using an Ultrospec 10 Cell Density Meter with 600 nm LED source (Amersham Biosciences). For bacterial re-plating experiments bacteria were sampled at OD600 nm = 2.0 and 5 µL of indicated dilutions in LB-medium were spotted onto LB-agar plates (Fig. 5) or 100 µL were plated onto LB-agar plates followed by incubation at 37°C until colonies became visible.

[5] = tested on: antibiotic-sensitive K. pneumoniae; assay: as above; type: cell-based, Klebsiella pneumoniae; settings: the other (antibiotic-sensitive) K. pneumoniae strain; dilutions spotted onto LB solid medium supplemented with antibiotic, outgrowth 48 h
Method: as §1

[6] = tested on: multiresistant K. pneumoniae; assay: as above; type: cell-based, Klebsiella pneumoniae; settings: dilutions spotted onto LB solid medium supplemented with antibiotic, outgrowth 48 h
Method: as §1

[7] = tested on: Escherichia coli (E. coli) NEB5α; assay: Bacteria culture and staining: growth and FACS labeling of E. coli; type: cell-based; settings: for bacterial growth in presence of dye: 2.5 µM dye in LB medium, OD600 over time, liquid and solid medium; for fluorescent labeling of live bacteria (FACS): 2.5 µM dye in culture medium, FACS at mid-exponential growth phase (OD600 = 2.0)
Method: as §1
Bacteria and macrophages were washed with PBS prior to flow cytometry and analysed using a Guava easyCyte flow cytometer (Millipore). FCS3.0 files were analysed using Flowing Software (http://flowingsoftware.btk.fi/). Cells were first gated in the forward- / side-scatter plot to exclude debries, followed by quadrant gating in plots using the fluorescence channels as shown above. For discrimination of live/dead cell discrimination cells in PBS were supplemented with 0.4 µL/mL propidium-iodide (5 mg/ml solution) followed by 5 min incubation on ice. Propidium iodide signal was recorded in the yellow channel.

bacteria = settings: in vivo labeling of bacteria for macrophage uptake assays; indicative of toxicity; cited from earlier work

With CC[n+]1ccc(/C=C/C=C2\Sc3ccccc3N2CCCCCCN=[N+]=[N-])c2ccccc21.[I-] [6-AzTO-3, 4-((1E,3Z)-3-(3-(6-azidohexyl)benzo[d]thiazol-2(3H)-ylidene)prop-1-en-1-yl)-1-ethylquinolin-1-ium iodide] the mean extinction coefficient ([1]; in DMSO, absorbance maximum at 639 nm) was 110203 ± 1577 M⁻¹ cm⁻¹ and the aqueous solubility [2] was “low”.

In the case of CC[n+]1ccc(/C=C/C=C2\Sc3ccccc3N2CCCCCCN)c2ccccc21.O=C([O-])C(F)(F)F [6-NH2TO-3, mono(4-((1E,3Z)-3-(3-(6-ammoniohexyl)benzo[d]thiazol-2(3H)-ylidene)prop-1-enyl)-1-ethylquinolinium) mono(2,2,2-trifluoroacetate)], the mean extinction coefficient ([1]; in milli-Q water, absorbance maximum at 625 nm) is reported as 90043 ± 418 M⁻¹ cm⁻¹.

For CC[N+]1=c2cc3c(cc2CCC1)=Nc1cc2c(cc1O3)N(CCCC(=O)ON1C(=O)CCC1=O)C(C)(C)CC2CS(=O)(=O)[O-] (centres unmarked) [Atto 655, reference compound], the quantum yield [3] is given as 0.31 and the “quantum yield (lit.)” value [4] is given as 0.30.

For CN(C)c1ccc2cc3ccc(N(C)C)cc3nc2c1 [acridine orange], the Kd (dsDNACT) is listed as 36 µM.

In the case of CC1(C)S[C@@H]2[C@H](NC(=O)[C@H](N)c3ccccc3)C(=O)N2[C@H]1C(=O)O [ampicillin], the sensitivity to antibiotic (E. coli) is reported as “sensitive”, the sensitivity to antibiotic [5] is reported as “sensitive” and the sensitivity to antibiotic [6] is reported as “insensitive”.

For O=C(N[C@H](CO)[C@H](O)c1ccc([N+](=O)[O-])cc1)C(Cl)Cl [chloramphenicol], the sensitivity to antibiotic (E. coli) was “sensitive”, the sensitivity to antibiotic [5] was “sensitive” and the sensitivity to antibiotic [6] was “insensitive”.

For CN(C)c1ccc2nc3ccc(=[N+](C)C)cc-3sc2c1 [methylene blue], the Kd (dsDNACT) is listed as 46 µM.

For Alexa Fluor^® 647 [reference compound], the quantum yield [3] is given as 0.32 and the “quantum yield (lit.)” value [4] is given as 0.33.

In the case of SyTO-9^™, the “bacterial growth in presence of dye” value [7] is listed as “delayed bacterial growth substantially”, the “fluorescent labeling of live bacteria (FACS)” value [7] is listed as “efficient green-fluorescent labeling” and the “colony formation of the stained bacteria” value (bacteria) is listed as “reduced colony formation”.

With “carboxyfluorescein succinimidyl ester [CFSE]” the “bacterial growth in presence of dye” value [7] was “compatible with bacterial growth” and the “fluorescent labeling of live bacteria (FACS)” value [7] was “hardly labeled bacteria”.

Reference: patent publication EP3572468B1, “CYANINE DYES AND THEIR USAGE FOR IN VIVO STAINING OF MICROORGANISMS” (PHILIPPS-UNIVERSITÄT MARBURG, priority 2018, dated 2019)
